Test results from patent publication EP1793006A2, “Nucleic acid ligands and improved methods for producing the same” (priority 1993, dated 1995).
Where a SMILES comes first, the peptide text is derived from it. The star is where a group is joined. pNA = O=[N+]([O-])c1ccc(N*)cc1; MeOSuc = COC(=O)CCC(=O)*

Legend:
T7 RNA polymerase = target: T1, T7 RNA polymerase (Escherichia phage T7, UniProt P00573); experiment: Incorporation of modified nucleotide triphosphates into RNA by T7 RNA polymerase transcription; format: biochemical; details: for efficiency of transcription (incorporation) as compared to UTP: three hours, 2 mM ribonucleotide triphosphates, 100 nM double-stranded DNA template, 5 units/ul T7 RNA polymerase
T1 construct: purchased NEB
Procedure: Incorporation of 5-modified uridines into RNA. Four prototypic 5-modified uridines, 5-AA-UTP, 5-F-12-UTP, 5-Dig-11-UTP, and 5-Br-UTP (shown in Figure 2) were incorporated into RNA by the T7.RNA polymerase under standard transcription conditions (40 mM Tris-Cl, pH 8.0, 12 mM MgCl2, 5 mM DTT, 1 mM spermidine, 0.002% Triton X-100, 4% PEG, 37°C). Autoradiogram of a 15% denaturing polyacrylamide gel showing products of transcription done with UTP, 5-AA-UTP, and 5-Br-UTP is shown in Figure 3. The efficiency of transcription was estimated from the total amounts of ^32P-radiolabelled transcript produced after three hours of incubation with 2 mM ribonucleotide triphosphates, 100 nM double-stranded DNA template, and 5 units/ul of T7 RNA polymerase (NEB). 5-AA-UTP, 5-F-12-UTP, 5-Dig-11-UTP, and 5-Br-UTP were incorporated with 28%, 51%, 23%, and 50% efficiency, respectively, as compared to UTP. No transcription was detectable when UTP was omitted from the transcription mixture.
The 2'-amino group of 2'-amino,2'-deoxyuridine is trifluoroacetylated (Imazawa et al. (1979) J. Org. Chem. 44:2039) in 82% yield. This intermediate is phosphorylated at the 5'-position (Ludwig and Eckstein (1989) J. Org. Chem. 54:631) in 61% yield. The 5-iodo derivative of the 2'-amino,2'-deoxyuridine 5'-triphosphate was prepared by mercuration (Dale et al. (1975) Biochemistry 14:2447) in a single step.
RGD-UTP transcription and purification. RGD-UTP was used in a T7 RNA polymerase reaction by direct substitution for normal UTP, and gave yields that were at least 50% of those obtainable with UTP. The concentration of RGD-UTP and other NTPs was 1 mM; the DNA template contained 5' and 3' fixed regions flanking a 30 base pair random sequence. The RNA transcript was purified by adsorption onto an anion exchange column (Mono Q)in a phosphate buffer containing 6 M urea and 50% formamide, and eluted with a gradient to 1 M NaCl (Figure 16). RGD-RNA eluted as one major peak from the column at a position in the gradient slightly ahead of the elution position of an equivalent RNA transcript made with normal UTP, consistent with the altered charge and perhaps altered conformation of the derivatized RNA.

TCT8-4 RNA = experiment: Competition binding of xanthine derivatives, equilibrium filtration; details: for Ki: 1 µM 14C-theophylline, 3.3 µM TCT8-4 RNA, read-out: Kc; for Kc(c)/Kc(t): competitor relative to theophylline
Procedure: An attractive feature of a small molecule-RNA interaction is the opportunity to readily investigate quantitatively the relative contribution of various constituents of the small molecule to the overall binding. Competition binding experiments were conducted with a variety of xanthine derivatives and related compounds. In these experiments, the effect of competitor added at various concentrations on the ^14C-theophylline-TCT8-4 RNA interaction was measured. Of particular interest were the roles of CH3 residues at the 1, 3, and 7 positions; these were assessed both individually and in combination. In addition, 1,3-dimethyluric acid probes the 8-position, as it contains a keto oxygen there relative to theophylline, and hypoxanthine, lacking the 2-position keto oxygen of xanthine, permit assessment of this constituent.
Equilibrium filtration assays were performed by the addition of various concentrations of the potential competitor to 1 µM [^14C]-theophylline and 3.3 µM TCT8-4 RNA (SEQ ID NO:249) in a 150 µl reaction mixture containing 100 mM HEPES buffer. Each reaction was performed as described in Example 23. Competition data were fit using a standard competition equation and fitting procedure (Gill et al. (1991) J. Mol. Biol. 220:307) assuming a 1:1 stoichiometry of competitor to RNA. […] From such data a competitor dissociation constant (Kc) was obtained. Under the condition where theophylline and the specific competitor bind to the same site, Kc = Kd.

[1] = target: T2, Human neutrophil elastase (Homo sapiens, UniProt P08246); experiment: Elastase inhibition assay with chromogenic tetrapeptide substrate; format: biochemical; details: Lineweaver-Burk plot
T2 construct: purchased Athens Research and Technology, Athens, Georgia
T2 sequence (P08246 30-267): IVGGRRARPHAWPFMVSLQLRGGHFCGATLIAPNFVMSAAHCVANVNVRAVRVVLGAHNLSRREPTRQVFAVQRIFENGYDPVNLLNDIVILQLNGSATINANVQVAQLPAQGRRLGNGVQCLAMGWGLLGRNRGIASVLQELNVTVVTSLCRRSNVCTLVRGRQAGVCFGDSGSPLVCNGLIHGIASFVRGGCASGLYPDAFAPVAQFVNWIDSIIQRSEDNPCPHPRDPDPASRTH
From the text: Elastase inhibition assay. The assay for elastase inhibition is based on the use of a chromogenic tetrapeptide substrate. […] The rate of p-nitroanilide generation in the absence of inhibitor was used as the control.
Elastase Inhibition Assay. The assay for elastase inhibition is based on the use of a chromogenic tetrapeptide substrate. […] The rate of p-nitroanilide generation in the absence of inhibitor was used as the negative control; the positive control contained the irreversible inhibitor N-methoxysuccinyl-Ala-Ala-Pro-Val-chloromethyl ketone. OD values were plotted against time, and the slope used to determine the rate of enzyme activity.

[2] = target: Human neutrophil elastase (human) (UniProt P08246); experiment: elastase inhibition assay with chromogenic substrate, Lineweaver-Burk plot (Figure 22)

T1 sequence (P00573 whole entry): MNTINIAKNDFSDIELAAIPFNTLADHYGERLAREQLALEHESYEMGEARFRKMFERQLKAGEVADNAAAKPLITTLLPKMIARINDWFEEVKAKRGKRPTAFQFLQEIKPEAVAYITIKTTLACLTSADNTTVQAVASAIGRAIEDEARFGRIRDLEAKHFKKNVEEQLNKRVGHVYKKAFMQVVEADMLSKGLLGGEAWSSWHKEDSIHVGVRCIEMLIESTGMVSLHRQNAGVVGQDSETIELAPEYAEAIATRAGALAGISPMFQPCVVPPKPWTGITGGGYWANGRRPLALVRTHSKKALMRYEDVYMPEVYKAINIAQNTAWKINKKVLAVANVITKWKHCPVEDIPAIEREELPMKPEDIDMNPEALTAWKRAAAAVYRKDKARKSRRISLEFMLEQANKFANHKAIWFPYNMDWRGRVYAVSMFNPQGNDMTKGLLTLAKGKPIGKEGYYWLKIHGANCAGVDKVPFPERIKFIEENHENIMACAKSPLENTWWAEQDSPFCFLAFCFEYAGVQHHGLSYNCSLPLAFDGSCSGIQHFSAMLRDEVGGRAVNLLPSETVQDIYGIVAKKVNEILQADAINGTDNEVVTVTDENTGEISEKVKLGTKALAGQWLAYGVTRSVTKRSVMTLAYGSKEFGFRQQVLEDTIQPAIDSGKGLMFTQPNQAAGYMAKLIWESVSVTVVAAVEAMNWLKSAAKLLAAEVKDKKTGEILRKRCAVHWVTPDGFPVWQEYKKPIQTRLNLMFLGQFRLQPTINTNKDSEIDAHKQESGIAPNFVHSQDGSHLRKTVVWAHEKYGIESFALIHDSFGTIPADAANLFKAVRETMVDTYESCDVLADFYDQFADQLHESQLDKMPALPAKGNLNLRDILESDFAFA

Row | Molecule | Ki (TCT8-4 RNA) [µM] | Kc(c)/Kc(t) (TCT8-4 RNA) | further results
1 | O=c1[nH]c(=O)n([C@@H]2O[C@H](COP(=O)(O)OP(=O)(O)OP(=O)(O)O)[C@@H](O)[C@H]2O)cc1Br [5-Br-UTP, 5-bromouridine triphosphate] |  |  | efficiency of transcription (incorporation) as compared to UTP (T7 RNA polymerase): 50%
2 | Cn1c(=O)[nH]c2nc[nH]c2c1=O [1-methylxanthine] | 9 ± 0.3 | 28 | 
3 | Cn1c(=O)[nH]c(=O)c2[nH]cnc21 [3-methylxanthine] | 2 ± 0.7 | 6.3 | competition, fold better relative to xanthine (TCT8-4 RNA): approximately 5 fold
4 | 5-digoxygenin-11-uridine triphosphate [5-Dig-11-UTP] |  |  | efficiency of transcription (incorporation) as compared to UTP (T7 RNA polymerase): 23%
5 | O=c1[nH]cnc2nc[nH]c12 [Hypoxanthine] | 49 ± 10 | 153 | competition, fold less efficient than xanthine (TCT8-4 RNA): approximately 5 fold
6 | COC(=O)CCC(=O)N[C@@H](C)C(=O)N[C@@H](C)C(=O)N1CCC[C@H]1C(=O)N[C@H](C(=O)Nc1ccc([N+](=O)[O-])cc1)C(C)C [substrate, N-methoxysuccinyl-Ala-Ala-Pro-Val-p-nitroanilide] (MeOSuc-AAPV-pNA) |  |  | Km [1]: 160 µM
7 | Cn1c(=O)c2c(ncn2C)n(C)c1=O [Caffeine, 1,3,7-trimethylxanthine] | 3500 ± 1500 | 10900 | recognition by TCT8-4 RNA (TCT8-4 RNA): extremely poor competitor
8 | NCC=Cc1cn(C2OC(COP(=O)(O)OP(=O)(O)OP(=O)(O)O)C(O)C2O)c(=O)[nH]c1=O (stereo not shown) [5-AA-UTP, 5-(3-aminoallyl)uridine triphosphate] |  |  | efficiency of transcription (incorporation) as compared to UTP (T7 RNA polymerase): 28%
9 | 1-carboxypropyl theophylline [CP-Theophylline] | 0.93 ± 0.2 | 2.9 | 
10 | N[C@@H]1[C@H](O)[C@@H](COP(=O)(O)OP(=O)(O)OP(=O)(O)O)O[C@H]1n1ccc(=O)[nH]c1=O [2'-amino,2'-deoxyuridine 5'-triphosphate] |  |  | substrate for T7 RNA polymerase (T7 RNA polymerase): substrates for T7 RNA polymerase
11 | Cn1cnc2c1c(=O)[nH]c(=O)n2C [3,7-dimethylxanthine] | > 500 | > 1500 | recognition by TCT8-4 RNA (TCT8-4 RNA): recognized poorly
12 | Cn1c(=O)c2[nH]cnc2n(C)c1=O [Theophylline, 1,3-dimethylxanthine] | 0.32 ± 0.13 | 1 | Kd (TCT8-4 RNA; read-out: Kd for theophylline to RNA used for the competition fit): 0.45 µM
13 | N[C@@H]1[C@H](O)[C@@H](COP(=O)(O)OP(=O)(O)OP(=O)(O)O)O[C@H]1n1cc(I)c(=O)[nH]c1=O [5-iodo,2'-amino,2'-deoxyuridine 5'-triphosphate] |  |  | substrate for T7 RNA polymerase (T7 RNA polymerase): substrates for T7 RNA polymerase
14 | O=c1[nH]c(=O)c2[nH]cnc2[nH]1 [Xanthine] | 8.5 ± 0.4 | 27 | competition, fold less effective than theophylline (TCT8-4 RNA): about 23 fold
15 | 5-fluorescein-12-uridine triphosphate [5-F-12-UTP] |  |  | efficiency of transcription (incorporation) as compared to UTP (T7 RNA polymerase): 51%
16 | Cn1cnc2[nH]c(=O)[nH]c(=O)c21 [7-methylxanthine] | > 500 | > 1500 | competition, fold less efficient than xanthine (TCT8-4 RNA): at least 1500 fold
17 | N-methoxysuccinyl Ala-Ala-Pro-Val (SEQ ID NO:44) (peptide) |  |  | Ki [2]: 920 µM
18 | N-methoxysuccinyl Ala-Ala-Pro-Val |  |  | Ki [1]: 920 µM
